According to US20110076339A1, “Colon Cleansing Method and Kit” (Kingston General Hospital, priority 2008, published 2011):

Assay: Patient diary of bowel movements after laxative use
Type: in vivo, human
Source text: In patient tolerance studies described herein, treatment groups received an osmotic purgative on the evening before colonoscopy in split doses. Comparisons were made between the results of these osmotic purgatives. Also, a comparison was made between patients treated with osmotic purgative alone, and patients treated initially with stimulant laxative followed by osmotic purgative. Table III provides a summary of data gathered from diaries that were kept by 100 patients as they progressed through a colon cleansing regimen. Each patient recorded the time of the first and last bowel movement following consumption of a laxative, as well as the total number of bowel movements associated with consumption of a particular laxative.

[1] = 10 mg taken 2 nights before colonoscopy (e.g. at suppertime)
[2] = 10 mg taken 3 nights before colonoscopy (e.g. at suppertime)

## CC(=O)Oc1ccc(C(c2ccc(OC(C)=O)cc2)c2ccccn2)cc1 [Bisacodyl, bisacodyl]
[1]
  Mean time to first BM ± standard deviation: 8.6 ± 5.3 h
  Mean time to last BM ± standard deviation: 16.5 ± 5.3 h
  Total number BM ± standard deviation: 3.8 ± 2
[2]
  Mean time to first BM ± standard deviation: 8.9 ± 5.1 h
  Mean time to last BM ± standard deviation: 16.5 ± 5.1 h
  Total number BM ± standard deviation: 3.4 ± 2
